Measured values from paper PMC9227231, “TP-CSO: A Triptolide Prodrug for Pancreatic Cancer Treatment” (Molecules, 2022).

Key:
[1] = In vivo toxicity in healthy C57 mice
Description: The 30 normal C57 mice (20–25 g) were randomly divided into a normal saline group, TP (0.4 mg/kg) group and TP-CSO group (equivalent TP of 0.2, 0.4 and 0.6 mg/kg), respectively. The drugs were administered by a gavage once every two days for seven times. The body weight and fatality rate were recorded daily. On the 14th day, blood was collected from the eyes, and the organs were harvested after the mice were euthanized. A Beckman CX5 automated analyzer detected renal function indexes, liver function indexes (serum alanine aminotransferase (ALT), aspartic aminotransferase (AST)), and (blood urea nitrogen (BUN) creatinine (CRE)).

Panco2 tumor = experiment: In vivo antitumor study in Panco2 tumor-bearing mice
Description: The antitumor activity of the TP-CSO conjugate was evaluated on Panco2 tumor-bearing mice. First, C57 mice (20–25 g) were implanted subcutaneously with 2 × 10^6 Panco2 cells. When the tumor grew up to about 100 mm^3, the mice were orally administrated with 0.4 mg/kg TP and TP-CSO (0.2, 0.4 and 0.6 mg TP equivalent/kg) once every two days, respectively. The body weight and fatality rate were recorded. Mice in control groups were orally administrated with saline solution. The tumor volume was measured with calipers and calculated by the (1/2) (a × b²) formula (a is long diameter, b is short diameter). After 14 days of intragastric administration, the mice were sacrificed, and livers, kidney, and tumors were harvested.

[2] = Pharmacokinetics after gavage administration to rats (plasma level of free TP by LC-MS); parameters: species or system SD rats; details: Sprague-Dawley, rat, in vivo, po, 0.4 mg/kg
Description: To evaluate the in vivo pharmacokinetics of TP-CSO conjugate, the SD rats (250–300 g, Sprague-Dawley rat) fasted 12 h in advance and were randomized into two groups (n = 5) and respectively treated with TP (0.4 mg/kg) and TP-CSO (0.4 mg/kg, TP equivalent). The blood samples (500 µL) were collected through the ocular chorionic vein at 5, 15, 30, 60, 120, 180, 240, 360, 480 and 720 min after intragastric administration. Subsequently, the samples were immediately centrifuged at 3500 rpm for 15 min. An upper plasma sample was collected and kept at −80 °C.
Sample processing: to the plasma sample,10 µL of ferulic acid (2.5 ng/mL) was added as internal standard. The sample (100 µL) was placed in a 1.5 mL Eppendorf tube, to which 800 µL of ethyl acetate was added and vortexed for 3 min, and this was centrifuged at 12,000 rpm for 15 min. The upper solution was taken and blow dried with nitrogen at room temperature. The dried residue was dissolved in 100 µL of methanol-water (60:40, v/v) solution, vortexed for 3 min, subsequently centrifuged at 12,000 rpm for 15 min at 4 °C and the upper solution was collected into a 2 mL vial.
10 μL of sample was injected into a Watets C-18 column (2.1 mm × 50 mm, 1.8 µm) on a Sciex X500R QTOF Mass Spectrometer (UPLC-MS; Framingham, MA, USA). The column was eluted with methanol (A)/water (B) solution at a flow rate of 0.3 mL/min and a column temperature of 35 °C (0–6 min, A: 40%–90%; 6–8.1 min, A: 90%; 8.1–10 min, A: 40%). The operating conditions of UPLC-MS are as follows: electrospray ionization source (ESI), negative ionization mode; Ion spray voltage (ISV), 3500 V; Drying temperature, 325 °C; Flow rate of desolvent gas, 8.0 L/min; Atomization temperature, 350 °C. The pyrolysis energy and impact energy of TP were 120 V and 10 V, respectively, and those of ferulic acid were 90 V and 10 V, respectively. A multiple reaction monitoring mode (MRM) was used to monitor the transformation of TP from m/z [M-H] 359.1→241.1 and ferulic acid m/z [M-H] 193.1→134.1 to productions.

[3] = healthy C57 mice, day 14, 0.4 mg/kg TP equivalent (medium dose)

Structure (SMILES): CC(C)[C@]12O[C@H]1[C@@H]1O[C@]13[C@]1(O[C@H]1C[C@H]1C4=C(CC[C@@]13C)C(=O)OC4)[C@@H]2O [TP, Triptolide]
- BUN and CRE levels [1, 3]: significantly lower than in the control group
- serum ALT and AST levels [1, 3]: obviously higher than those in other groups
- body weight vs control group ([1]; healthy C57 mice, gavage once every two days x7, 0.4 mg/kg TP equivalent (medium dose)): obvious body weight loss but without lethality
- minimum dose causing the death of mice ([1]; mice, preliminary experiments): about 0.6 mg/kg
- tumor-inhibition rate (TIR) (Panco2 tumor; Panco2-bearing mice, oral once every two days, end of study, 0.4 mg TP equivalent/kg (medium dose)): 43.39%
- body weight vs control group (Panco2 tumor; mouse, in vivo, po, 0.4 mg/kg): obvious decrease in body weight
- AUC(0-inf) [2]: 0.061 ng·h/mL
- Cmax [2]: 0.021 ng/mL
- Tmax [2]: 15 min
- half-life [2]: 42.6 min
